According to patent US20250032439A1, “NOVEL COMPOSITIONS” (DSM IP ASSETS B.V., priority 2021, published 2025):

Target: T1, human 5-HT2B receptor (Homo sapiens, UniProt P41595)
T1 construct: expressed in transfected cells; host or cells: CHO cells
Test: Antagonism of human serotonin 5-HT2B, IP1 functional assay (HTRF) in transfected CHO cells
Type: cell-based
Details: inhibition of IP1 production induced by 30 nM 5-HT
Experimental: The human 5-HT2B receptor expressed in transfected CHO cells is used to determine antagonistic effects by measuring the effects on agonist-induced inositol monophosphate (IP1) production using the HTRF® detection method (Porter et al., 1999, Brit. J. Pharmacol., 128: 13-20; Trinquet et al., 2006, Analytical Biochemistry 358, 126-135) The CHO cells can be suspended in a buffer containing 10 mM Hepes/NaOH (pH 7.4), 4.2 mM KCl, 146 mM NaCl, 1 mM CaCl2, 0.5 mM MgCl2, 5.5 mM glucose and 50 mM LiCl, then distributed in microtiter plates at a density of about 20000 cells/well and preincubated for 5 min at room temperature in the presence of buffer (basal control), test compound, i.e. reference samples and inventive mixture of retinyl acetate (“retAc”) (see Table 1) or a very potent known reference antagonist SB-206553. Thereafter, the reference agonist 5-HT (serotonin) is added at a final concentration of 30 nM. […] Following 30 min incubation at 37° C., the cells are lysed and the fluorescence acceptor (D2-labeled IP1) and fluorescence donor (anti-IP1 antibody labeled with europium cryptate) are added. After 60 min at room temperature, the fluorescence transfer is measured at wavelengths Ex=337 nm and Em=620 and 665 nm using a microplate reader (Envision, Perkin Elmer). The IP1 concentration can be determined by dividing the signal measured at 665 nm by that measured at 620 nm (ratio). The results are expressed as a percent inhibition of the control response to 30 nM 5-HT. Mean values, standard deviation are calculated and used in a dose response model to calculate the IC50 values.
The standard reference antagonist SB-206553 is tested in each experiment at several concentrations to generate a concentration-response curve. The dose response curve is used to calculate the IC50 value. The same procedure is done for RetAc mix and the Reference RetAc to determine the IC50 values.

T1 sequence (P41595 whole entry): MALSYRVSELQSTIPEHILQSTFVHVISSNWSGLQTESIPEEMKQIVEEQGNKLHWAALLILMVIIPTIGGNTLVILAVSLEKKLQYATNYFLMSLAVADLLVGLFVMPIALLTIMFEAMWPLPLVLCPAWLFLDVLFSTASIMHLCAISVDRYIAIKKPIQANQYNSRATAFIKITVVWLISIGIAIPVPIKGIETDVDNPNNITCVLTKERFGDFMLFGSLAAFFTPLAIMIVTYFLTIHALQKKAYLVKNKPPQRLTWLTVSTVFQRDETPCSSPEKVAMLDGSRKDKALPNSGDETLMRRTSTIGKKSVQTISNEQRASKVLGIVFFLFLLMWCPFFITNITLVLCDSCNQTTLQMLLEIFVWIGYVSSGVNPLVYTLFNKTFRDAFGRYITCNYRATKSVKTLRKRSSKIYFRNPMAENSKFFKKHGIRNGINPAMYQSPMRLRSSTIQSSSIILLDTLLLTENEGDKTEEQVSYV

Row | SMILES | IC50 [µM]
1 | CC(=O)OC/C=C(C)/C=C/C=C(C)/C=C/C1=C(C)CCCC1(C)C [Reference retAc, retinyl acetate] | 12
2 | CC(=O)OC/C=C(C)/C=C/C=C(C)/C=C/C1=C(C)CCCC1(C)C [RetAc mix, retinyl acetate] | 5.2
3 | Cn1ccc2cc3c(cc21)CCN3C(=O)Nc1cccnc1 [SB-206553] | 0.026
